One compound from patent US20110065645A1, “Compositions and Methods for Modulating Neuron Degeneration and Neuron Guidance” (The Regents of the University of California, priority 2009, published 2011) can be followed below.

In one assay the test system is commissural axons. The experiment in a line: Open book spinal cord explant treatments and DiI injections (midline pathfinding). It is filed as cell-based. The settings on record: rat E13 open-book; 5E1 100 ng/ml, Forskolin 25 μM, KT5720 25 μM; 12-14 hrs. From the text:
Blocking Shh activity causes midline guidance defects. To determine the role of Shh in regulating midline pathfinding, we analyzed the trajectory of commissural axons in rat E13 “open-book” spinal cord preparations treated with the function-blocking antibody for Shh, 5E1. The projections of these commissural axons were visualized by injecting the lipophilic dye, DiI, to the dorsal margin of the spinal cord (FIG. 32J). In “open-book” explants, commissural axons can recapitulate the in vivo pathfinding and project from the dorsal spinal cord margin across the floor plate and then turn sharply anteriorly on the contralateral side.^(7,8). […] Normally, after midline crossing, commissural axons make a sharp anterior turn and either project into the ventral funiculus alongside the floor plate or fan out in a highly organized manner to grow laterally into the lateral funiculus^(7) (FIG. 32G). […] The spinal cord midline is a three-dimensional structure. […] Some of the injection sites were therefore scored for more than one category of phenotypes. […]
Shh may induce Sema repulsion by reducing cAMP/PKA signaling. […] In “open-book” explant cultures we treated commissural axons with the activator for adenylyl cyclase (and consequently cAMP), Forskolin and the PKA inhibitor KT5720 and analyzed commissural axon pathfidning by DiI tracing as shown in FIG. 32J. […]

The next assay has as its system PKA. As to the kind of experiment: Western blot of activated phospho-PKA (Thr197) in dissociated commissural neurons. It is filed as cell-based, rat. The note with it: Shh-N 2.5 μg/ml for one hour; KT5720 25 μM for 15 minutes. As for the experimental part:
To confirm that PKA activity can be reduced in commissural neurons exposed to Shh, we treated dissociated spinal cord commissural neurons with Shh and analyzed the level of activated PKA. 24 hr after plating, commissural neurons were serum starved overnight and then treated with 2.5 μg/ml (150 nM) of Shh-N recombinant protein (R&D) for one hour prior to lysate collection. Forskolin (25 μM), and the PKA inhibitor, KT5720 (25 μM) were added to the commissural neuron culture as controls for 15 minutes before lysis. We then tested these lysates for levels of activated PKA with an antibody that specifically recognizes an activated form of the catalytic domain of PKA (phosphorylated at Thr197).
Dissociated commissural neuronal culture. Spinal cords were isolated from rat E13 embryos and commissural neurons were dissociated as previously described.^(8) In brief, embryos were treated with Dispase I (0.25 mg/ml; D4818, Sigma) for 5 minutes prior isolation of spinal cords, followed by collection of spinal cord dorsal domains by microdissection and incubation with Trypsin (1 mg/ml; T47-99, Sigma) for 10-12 min in a 37° C. water bath. The tissue was then triturated with flamed glass pipettes and a single cell suspension was plated on poly-D-lysine (PDL; 20 μg/ml) and laminin (10 μg/ml) coated coverslips or 12 well plates (Corning). More than 90% cells in these cultures express TAG-1, a marker for spinal cord commissural neurons (FIG. 35B). 10^5 dissociated cells were plated on PDL/laminin coated coverslips and cultured for 24 hrs before processed for immunohistochemistry as described above. For Western blot analysis, 10^6 dissociated cells were plated on PDL/laminin coated 12-well tissue culture plates and cultured initially for 24 hrs in dorsal explant media (replenished daily) then changed to low serum medium overnight prior to treatments. […]

For the compound `CCCCCCOC(=O)[C@]1(O)C[C@@H]2O[C@@]1(C)n1c3ccccc3c3c4c(c5c6ccccc6n2c5c31)C(=O)NC4` [KT5720, reference compound], the “commissural axon midline pathfinding (DiI tracing)” value in the assay with commissural axons is “prevented a vast number of axons from entering the floor plate”. Besides, the “level of activated PKA” value in the assay with PKA is on record as “reduce the level of activated PKA”.
